The structures appear in SMILES notation. Values joined by “and” are separate entries in the source; they are usually repeats but may differ in a detail not shown here. Equal entries are not always repeated.

What all share (assay type): biochemical
One experiment addresses T1, Rlk (Homo sapiens, UniProt P42681).
T1 sequence (P42681 1-527): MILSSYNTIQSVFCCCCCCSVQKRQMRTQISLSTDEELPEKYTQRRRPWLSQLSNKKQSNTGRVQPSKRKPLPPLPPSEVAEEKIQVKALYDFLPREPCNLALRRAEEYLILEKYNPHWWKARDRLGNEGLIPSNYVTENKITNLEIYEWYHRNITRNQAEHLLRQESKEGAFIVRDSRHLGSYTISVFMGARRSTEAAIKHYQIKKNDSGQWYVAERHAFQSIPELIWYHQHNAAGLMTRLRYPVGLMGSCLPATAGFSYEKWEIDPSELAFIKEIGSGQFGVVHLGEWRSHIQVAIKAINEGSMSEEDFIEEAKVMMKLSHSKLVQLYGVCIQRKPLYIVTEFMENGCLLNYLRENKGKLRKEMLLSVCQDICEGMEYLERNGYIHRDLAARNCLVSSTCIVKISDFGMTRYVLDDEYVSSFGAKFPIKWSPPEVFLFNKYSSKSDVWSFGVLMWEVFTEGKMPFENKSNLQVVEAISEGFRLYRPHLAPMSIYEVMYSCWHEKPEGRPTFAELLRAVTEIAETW
The experiment in a line: RLK inhibition assay, standard coupled enzyme assay. To be noted: 100 μM ATP, 40 nM Rlk, 30° C. As to the method:
Compounds were screened for their ability to inhibit Rlk using a standard coupled enzyme assay (Fox et al., Protein Sci., (1998) 7, 2249). Assays were carried out in a mixture of 20 mM MOPS (pH 7.0), 10 mM MgCl2, 0.1% BSA and 1 mM DTT. Final substrate concentrations in the assay were 100 μM ATP (Sigma Chemicals) and 10 μM peptide (Poly Glu:Tyr 4:1). Assays were carried out at 30° C. and in the presence of 40 nM Rlk. Final concentrations of the components of the coupled enzyme system were 2.5 mM phosphoenolpyruvate, 300 μM NADH, 30 μg/ml pyruvate kinase and 10 μg/ml lactate dehydrogenase.
An assay stock buffer solution was prepared containing all of the reagents listed above, with the exception of ATP and the test compound of interest. 60 μl of the stock solution was placed in a 96 well plate followed by addition of […] of DMSO stock containing serial dilutions of the test compound (typically starting from a final concentration of 7.5 μM). The plate was preincubated for 10 minutes at 30° C. and the reaction initiated by addition of 5 μl of ATP. Initial reaction rates were determined with a Molecular Devices SpectraMax Plus plate reader over a 10 minute time course. IC50 and Ki data were calculated from non-linear regression analysis using the Prism software package (GraphPad Prism version 3.0cx for Macintosh, GraphPad Software, San Diego Calif., USA).

In experiment [1] the target is T2, Itk (Homo sapiens, UniProt Q08881).
T2 sequence (Q08881 1-620): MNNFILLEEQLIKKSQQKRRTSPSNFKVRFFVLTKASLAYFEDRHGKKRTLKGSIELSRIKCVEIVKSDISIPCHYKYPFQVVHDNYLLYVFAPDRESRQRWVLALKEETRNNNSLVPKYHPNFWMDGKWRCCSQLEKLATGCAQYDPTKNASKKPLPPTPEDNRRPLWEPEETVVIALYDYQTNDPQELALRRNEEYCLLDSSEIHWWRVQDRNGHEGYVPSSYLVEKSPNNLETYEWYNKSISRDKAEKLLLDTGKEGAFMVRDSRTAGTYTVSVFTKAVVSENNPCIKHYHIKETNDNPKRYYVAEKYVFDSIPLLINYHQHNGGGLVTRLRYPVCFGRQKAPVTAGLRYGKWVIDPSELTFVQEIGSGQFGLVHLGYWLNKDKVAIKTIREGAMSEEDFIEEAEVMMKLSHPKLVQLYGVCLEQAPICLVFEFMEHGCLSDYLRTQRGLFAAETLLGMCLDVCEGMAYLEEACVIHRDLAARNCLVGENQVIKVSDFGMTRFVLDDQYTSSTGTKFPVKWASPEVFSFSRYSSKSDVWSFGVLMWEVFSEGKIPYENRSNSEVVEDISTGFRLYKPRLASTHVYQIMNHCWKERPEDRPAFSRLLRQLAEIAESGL
The experiment in a line: ITK inhibition assay, radioactive-phosphate incorporation. Conditions: [γ-33P]ATP, SAM68 peptide, 25° C.

In experiment [2] the target is T2, Itk. Put plainly: ITK inhibition assay (UV), standard coupled enzyme assay. Conditions: 100 μM ATP, 100 nM Itk, 25° C. The method, then:
Assays were carried out in a mixture of 20 mM MOPS (pH 7.0), 10 mM MgCl2, 0.1% BSA, 1 mM DTT, 2.5 mM phosphoenolpyruvate, 300 μM NADH, 30 μg/ml pyruvate kinase and 10 μg/ml lactate dehydrogenase. […]
An assay stock buffer solution was prepared containing all of the reagents listed above, with the exception of ATP and the test compound of interest. […] The plate was preincubated for 10 minutes at 25° C. and the reaction initiated by addition of 5 μl of ATP. Initial reaction rates were determined with a Molecular Devices SpectraMax Plus plate reader over a 10 minute time course. IC50 and Ki data were calculated from non-linear regression analysis using the Prism software package (GraphPad Prism version 3.0cx for Macintosh, GraphPad Software, San Diego Calif., USA).

The next experiment deals with Btk (Homo sapiens, UniProt Q06187). Put plainly: BTK inhibition assay, radioactive-phosphate incorporation. Conditions: 50 μM [γ-33P]ATP, 25 nM Btk, 25° C. The method, then:
Compounds were screened for their ability to inhibit Btk using a radioactive-phosphate incorporation assay at Vertex Pharmaceuticals. Assays were carried out in a mixture of 20 mM MOPS (pH 7.0), 10 mM MgCl2, 0.1% BSA and 1 mM DTT. Final substrate concentrations in the assay were 50 μM [γ-33P]ATP (200mCi 33P ATP/mmol ATP, Amersham Pharmacia Biotech, Amersham, UK/Sigma Chemicals) and 2 μM peptide (SAM68 D332-443). Assays were carried out at 25° C. and in the presence of 25 nM Btk. An assay stock buffer solution was prepared containing all of the reagents listed above, with the exception of the peptide and the test compound of interest. 75 μL of the stock solution was placed in a 96 well plate followed by addition of 2 μL of DMSO stock containing serial dilutions of the test compound (typically starting from a final concentration of 15 μM) in duplicate (final DMSO concentration 2%). The plate was preincubated for 15 minutes at 25° C. and the reaction initiated by addition of 25 μL peptide (final concentration 2 μM). Background counts were determined by the addition of […] 0.2M phosphoric acid+0.01% TWEEN to control wells containing assay stock buffer and DMSO prior to initiation with peptide.
The reaction was stopped after 10 minutes by the addition of […] 0.2M phosphoric acid+0.01% TWEEN. A multiscreen phosphocellulose filter 96-well plate (Millipore, Cat no. MAPHN0B50) was pretreated with 100 μL 0.2M phosphoric acid+0.01% TWEEN 20 prior to the addition of […] of the stopped assay mixture. The plate was washed with 4×200 μL 0.2M phosphoric acid+0.01% TWEEN 20. After drying, 30 μL Optiphase ‘SuperMix’ liquid scintillation cocktail (Perkin Elmer) was added to the well prior to scintillation counting (1450 Microbeta Liquid Scintillation Counter, Wallac).
After removing mean background values for all of the data points, Ki(app) data were calculated from non-linear regression analysis using the Prism software package (GraphPad Prism version 3.0cx for Macintosh, GraphPad Software, San Diego Calif., USA).

Chain of Btk (Q06187 whole entry, species assumed): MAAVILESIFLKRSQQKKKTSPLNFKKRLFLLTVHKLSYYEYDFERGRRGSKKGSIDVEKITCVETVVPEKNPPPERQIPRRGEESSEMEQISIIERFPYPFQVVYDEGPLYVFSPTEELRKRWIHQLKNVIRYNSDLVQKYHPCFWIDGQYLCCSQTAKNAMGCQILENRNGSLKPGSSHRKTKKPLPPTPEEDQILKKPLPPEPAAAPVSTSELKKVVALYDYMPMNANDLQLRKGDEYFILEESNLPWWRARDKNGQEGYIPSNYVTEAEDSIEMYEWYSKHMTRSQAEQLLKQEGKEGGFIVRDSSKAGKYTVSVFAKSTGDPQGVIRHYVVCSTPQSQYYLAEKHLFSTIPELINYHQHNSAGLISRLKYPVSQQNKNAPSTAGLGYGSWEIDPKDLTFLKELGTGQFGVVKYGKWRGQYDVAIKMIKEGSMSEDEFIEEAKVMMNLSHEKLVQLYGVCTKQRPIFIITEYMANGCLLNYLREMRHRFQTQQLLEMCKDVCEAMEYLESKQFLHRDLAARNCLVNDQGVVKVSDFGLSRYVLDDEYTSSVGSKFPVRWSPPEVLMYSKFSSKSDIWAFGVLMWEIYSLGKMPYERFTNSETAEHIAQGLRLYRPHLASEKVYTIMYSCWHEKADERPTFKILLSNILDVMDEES

On to `CC(C)(C)c1ccc(C(=O)Nc2cc(-c3ccncc3)c[nH]c2=O)cc1` [Compound I-11, 4-tert-Butyl-N-(6-oxo-1,6-dihydro-[3,4]bipyridinyl-5-yl)-benzamide], for which the results for the Ki on Rlk, on Itk [1] and on Itk [2] were > 1000 nM, 100 to 1000 nM and 100 to 1000 nM, respectively.

For `CNc1cccc(-c2c[nH]c(=O)c(NC(=O)c3ccc(C(C)(C)C)cc3)c2)n1` [II-7], the Ki (in general, a dissociation constant, usually derived from enzyme kinetics or from competition with a known ligand) was > 1000 nM at Rlk, 100 to 1000 nM on Itk [1] and 100 to 1000 nM at Itk [2].

`CNc1cc(-c2c[nH]c(=O)c(NC(=O)c3ccc(C(C)(C)C)cc3)c2)nc(SC)n1` [II-41]: the Ki at Rlk was > 1000 nM; on Itk [1] it was 100 to 1000 nM; at Itk [2], 100 to 1000 nM.

For the compound `CNc1ccc(C)c(-c2c[nH]c(=O)c(NC(=O)c3ccc(C(C)(C)C)cc3)c2)c1` [II-43], the Ki at Btk was > 500 nM; on Itk [1], 100 to 1000 nM.

Turning to `CNCCNc1cccc(-c2c[nH]c(=O)c(NC(=O)c3ccc(N4CCCCC4)cc3)c2)n1` [II-51], the figures for the Ki on Btk and at Itk [1] were < 500 nM and < 100 nM, respectively.

With `CN(C)CCNc1nccc(-c2c[nH]c(=O)c(NC(=O)c3ccc(N4CCCCC4)cc3)c2)n1` [II-58], the Ki was < 500 nM at Btk and < 100 nM at Itk [1].

Turning to `CN(C)CCN(C)c1nccc(-c2c[nH]c(=O)c(NC(=O)c3ccc(N4CCCCC4)cc3)c2)n1` [II-61], the Ki was > 500 nM and < 500 nM at Btk; 100 to 1000 nM on Itk [1].

On to `CNCCNc1nccc(-c2c[nH]c(=O)c(NC(=O)c3ccc(N4CCCCC4)cc3)c2)n1` [II-63], for which the results for the Ki at Btk and on Itk [1] were < 500 nM and < 100 nM, respectively.

For `CNc1nccc(-c2c[nH]c(=O)c(NC(=O)c3ccc(N4CCNCC4)cc3)c2)n1` [II-77], the results for the Ki at Rlk, on Btk and at Itk [1] were < 1000 nM, < 500 nM and < 100 nM, respectively.

`CNc1nccc(-c2c[nH]c(=O)c(NC(=O)c3ccc(N4CCN(C(C)C)CC4)cc3)c2)n1` [II-78]: the Ki on Rlk is < 1000 nM; on Btk, < 500 nM; on Itk [1], < 100 nM.

Regarding `CNc1nccc(-c2c[nH]c(=O)c(NC(=O)c3ccc(N4CCC[C@H]4CN4CCCC4)cc3)c2)n1` [II-80], the Ki was < 1000 nM at Rlk, < 500 nM at Btk and < 100 nM at Itk [1].

For `CC(C)(N)CNc1cccc(-c2c[nH]c(=O)c(NC(=O)c3ccc(N4CCCCC4)cc3)c2)n1` [II-112], the figures for the Ki at Rlk, at Btk and at Itk [1] were < 1000 nM, < 500 nM and < 100 nM, respectively.

For `CNc1cncc(-c2c[nH]c(=O)c(NC(=O)c3ccc(N4CCCCC4)cc3)c2)n1` [II-114], the Ki is > 1000 nM at Rlk and > 500 nM at Btk.

With `CC(O)[C@@H](CO)Nc1cccc(-c2c[nH]c(=O)c(NC(=O)c3ccc(N4CCCCC4)cc3)c2)n1` (stereo partly drawn) [II-149], the Ki is > 1000 nM on Rlk, > 500 nM on Btk and 100 to 1000 nM on Itk [1].

The values above are taken from US8338597B2, “Pyridones useful as inhibitors of kinases” (Vertex Pharmaceuticals Incorporated, priority 2004, dated 2012).
